Laboratory results as given in patent US5741785A, “Heterocyclic compounds, their preparation and use” (Novo Nordisk A/S, priority 1994, dated 1998).

Tests used:
[1] = tested on: AMPA receptor; conditions: reported in J. Med. Chem., 35, 3319-3324, 1992; cited from earlier work
[2] = target: AMPA type receptors; test: 3H-AMPA binding (Test 1), rat cerebral cortical membrane homogenate; conditions: 5 nM 3H-AMPA, 0° C., 30 min, pH 7.1, Hill analysis; read-out: IC50 (50% displacement of the specific binding of 3H-AMPA), TEST 1
Description: AMPA receptor binding may be studied by using ^3 H-AMPA as radioligand.
The pharmacological properties of the compounds of the present invention can be illustrated by determining their capability for displacing radioactively labelled 2-amino-3-hydroxy-5-methyl-4-isoxazolepropionic acid (AMPA) from the AMPA type receptors.
The displacement activity of the compounds may be shown by determining the IC50 value which represents the concentration (μM) which causes a displacement of 50% of the specific binding of ^3 H-AMPA.
^3 H-AMPA binding (Test 1)
500/μl of thawed rat cerebral cortical membrane homogenate in Tris-HCl (30 mM), CaCl2 (2.5 mM) and KSCN (100 mM) pH 7.1 were incubated at 0° C. for 30 min. with 25 μl ^3 H-AMPA (5 nM final concentration) and the test compound and buffer. Nonspecific binding was determined by incubation with L-glutamic acid (600/μM final concentration). The binding reaction was terminated by adding 5 ml of ice-cold buffer followed by filtration through Whatman GF/C glass fibre filters and 2×5 ml wash with ice-cold buffer. Bound radioactivity was measured by scintillation counting. IC50 was determined by Hill analysis of at least four concentrations of test compound.

[3] = tested on: quisqualic acid stimulated spreading depression in chicken retina; test: Spreading depression (Test 2), quisqualic acid stimulated, chicken retina; type: cell-based; conditions: Gallus gallus, quisqualate 1 μg/ml, 15 min preincubation, 26° C., read-out: IC50 (50% maximal inhibition of quisqualic acid stimulated spreading depression), TEST 2
Description: The influence of glutamic acid analogues on secondary effects of glutamate receptor interactions may be studied in vitro by using the phenomenon of spreading depression in chicken retina. Such experiments will provide information as to the efficacies (agonist/antagonist) of the test substances. This is in contrast to binding studies, which only provide information on the affinities of the compounds for the receptor.
The pharmacological properties of the compounds of the present invention can be illustrated by determining their capability for displacing radioactively labelled 2-amino-3-hydroxy-5-methyl-4-isoxazolepropionic acid (AMPA) from the AMPA type receptors. […]
The eyes were initially incubated in normal P.S.S. for 15-30 min. and then transferred to P.S.S. containing quisqualate (1 μg/ml). In this "stimulating solution" S.D.s start spontaneously usually from the edge of the retina, and can be easily observed by eye, The time taken for an S.D. to start in each eye was measured.
After a further 15 min. of incubation in normal P.S.S. the eyes were transferred to normal P.S.S, containing the test compound and incubated for 15 min. […] The time taken for an S.D. to start in each eye was measured again. The eyes were then placed back in normal P.S.S. and after 15 min. the time taken for S.D. to start was measured again, in order to assess the degree of recovery from any drug effects. […]

Row | SMILES | affinity for the AMPA receptor [1] | IC50 [2] [nM] | IC50 [3] [nM]
1 | O=c1[nH]c2cc(Cl)c(Cl)cc2n2ccnc12 [7,8-dichloro-imidazo[1,2-a]quinoxaline-4(5H)-one] | reasonable affinity |  | 
2 | Cc1c(C(=O)O)nc2c(=O)[nH]c3cc(C(F)(F)F)ccc3n12 [Example 2, 2-Carboxy-1-methyl-7-trifluoromethylimidazo[1,2-a]quinoxalin-4(5H)-one] |  | 450 | 1100
